Target: T1, SHP2 protein (Homo sapiens, UniProt Q06124)
T1 sequence (Q06124 1-593): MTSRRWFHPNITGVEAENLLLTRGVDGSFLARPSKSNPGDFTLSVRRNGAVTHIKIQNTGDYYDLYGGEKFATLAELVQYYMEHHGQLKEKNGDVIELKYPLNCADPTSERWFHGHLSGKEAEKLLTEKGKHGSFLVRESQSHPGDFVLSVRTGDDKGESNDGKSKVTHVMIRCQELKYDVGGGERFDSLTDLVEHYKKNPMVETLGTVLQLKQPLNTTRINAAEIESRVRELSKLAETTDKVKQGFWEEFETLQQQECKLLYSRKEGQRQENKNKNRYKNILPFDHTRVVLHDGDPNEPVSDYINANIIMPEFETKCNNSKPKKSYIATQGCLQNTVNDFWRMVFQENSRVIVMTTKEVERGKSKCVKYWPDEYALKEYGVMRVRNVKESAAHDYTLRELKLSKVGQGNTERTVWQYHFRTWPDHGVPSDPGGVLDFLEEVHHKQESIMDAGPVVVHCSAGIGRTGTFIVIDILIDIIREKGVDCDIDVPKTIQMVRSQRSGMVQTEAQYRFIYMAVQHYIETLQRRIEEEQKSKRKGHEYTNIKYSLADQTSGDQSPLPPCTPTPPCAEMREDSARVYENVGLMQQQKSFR
Assay: Measurement of SHP2 protein degradation in NCI-H358 cells (western blotting)
Type: cell-based
Design: endogenous in cells; host or cells: NCI-H358
Conditions: harvested after 24 hours
Method: H358 cells were treated with the synthesized Example compounds, and the amount of SHP2 protein present in the cells was measured using western blotting detection. The protocol for the experiment using H358 cells is as follows.
[Culture]H358 cells were resuspended in RPMI1640 with 25 mM HEPES (Hyclone, SH30255.01), 10% FBS (Hyclone, SV30207.02), 1% Penicillin-streptomycin (Welgene, LS 202-02) media, seeded at 3×10^5/mL in 12-well plates (1 mL each), and cultured for 24 hours.
[Compound treatment] Before compound treatment, the media was changed to 1 mL media, and then the 12-well plate was treated as follows. The 10 mM stock dissolved in DMSO was serially diluted 1/100 or 1/10 with the media, and the compound was treated to the cells at a final concentration of 0.001, 0.01, and 0.1 μM, and harvested after 24 hours. For the negative control group, DMSO diluted 1/1000 in the media was added (1 μL DMSO+999 μL media).
[Harvest]24 hours after compound treatment, each well was scraped with a cell lifter (SPL, 90040), pipetted with a 1 mL pipette, collected in a 1.5 mL microtube, and centrifuged (500 g, 5 min, 4° C.). The supernatant was removed, washed with PBS, and centrifuged again (500 g, 5 min, 4° C.). Afterwards, the supernatant was removed to prepare a pellet.
[Cell lysis and sample preparation] Lysis buffer was prepared as follows. RIPA buffer (Biosesang, RC2038-050-00)+0.5 mM PMSF (SIGMA, P7626)+1× Protease/Phosphatase Inhibitor (Cell signaling, 5872S) were added at 30 μL per tube, vortexed, and incubated on ice for 30 minutes. Afterwards, sonication was performed (10 sec pulse, 30 sec rest, 5 cycles, 70% amplification) and centrifugation was performed (15,000 g, 15 min, 4° C.), and only the supernatant was transferred to a microtube. A 96-well plate was diluted to 1/4 with 7.5 μL of RIPA buffer and 2.5 μL of sample, and 200 μL each was added after mixing A and B of the BCA Protein Assay Kit (iNtRON, 21071) in a ratio of 50:1. The plate was incubated at 37° C. for 30 minutes and left at room temperature for 10 minutes. After shaking for 10 seconds with a SYNERGY H1 microplate reader from BioTek, the absorbance was measured at 562 nm. The protein was quantified using the measured value to make a sample, which was then incubated at 70° C. for 10 minutes. The sample buffer used here was a mixture of NuPAGE or Bolt 4× sample buffer (Invitrogen) and each 10× sample reducing agent depending on the gel to be used, and RIPA buffer was used for protein dilution.
[Western blotting detection] Equal amounts of samples were loaded onto NuPAGE or Bolt Bis-tris 4-12% gradient gel and run (200 V, 35 min). This was transferred to […] NC membrane using Trans-blot Turbo (BIO-RAD) (1.3 A constant, 25 V limit, 15 min), and blocked with 5% skim milk/0.2% TBST for 45 min at room temperature. Anti-SHPTP2 Mouse (1:1,000 in 5% skim milk/0.2% TBST, size: 70 kDa, Santa cruz sc-7384) and Anti-GAPDH Rabbit (1:2,000 in 5% skim milk or 5% BSA/0.2% TBST, size: 37 kDa, CST #2118) were added and incubated overnight at 4° C. After washing three times with 0.2% TBST washing buffer for 5 minutes each, secondary antibodies Anti-Mouse IgG (1:5,000 in 5% skim milk/0.2% TBST, CST) and IRDye® 680RD Goat anti-Rabbit IgG Secondary Antibody (1:10,000 in 5% skim milk/0.2% TBST, LI-COR 926-68071) were added, and incubated on a rocker at room temperature for 45 minutes. The resultants were washed five times with 0.2% TBST washing buffer for 5 minutes each, and detected using LI-COR's Odyssey. GAPDH was detected with a 700 nm channel, and SHPTP2 was detected using SuperSignal West Pico PLUS Chemiluminescent Substrate.

SHP2% degradation (0.01 μM)	SHP2% degradation (0.1 μM)	Compound
−8.0%	93.9%	Cc1ncsc1-c1ccc(CNC(=O)[C@@H]2C[C@@H](O)CN2C(=O)[C@@H](NC(=O)C2(F)CC2)C(C)(C)C)c(OC2CCN(CC3(O)CCN(c4nccc(Sc5cnc(N6CCC(C)(CN)CC6)cn5)c4Cl)CC3)CC2)c1 [Example 10, (2S,4R)—N-(2-((1-((1-(4-((5-(4-(aminomethyl)-4-methylpiperidin-1-yl)pyrazin-2-yl)thio)-3-chloropyridin-2-yl)-4-hydroxypiperidin-4-yl)methyl)piperidin-4-yl)oxy)-4-(4-methylthiazol-5-yl)benzyl)-1-((S)-2-(1-fluorocyclopropane-1-carboxamido)-3,3-dimethylbutanoyl)-4-hydroxypyrrolidine-2-carboxamide]
93.5%	99.6%	Cc1ncsc1-c1ccc(CNC(=O)[C@@H]2C[C@@H](O)CN2C(=O)[C@@H](NC(=O)C2(F)CC2)C(C)(C)C)c(O[C@H]2CC[C@H](C(=O)N3CC(Nc4cccc(Sc5cnc(N6CCC7(CC6)Cc6ncccc6[C@H]7N)cn5)c4Cl)C3)CC2)c1 [Example 15, (2S,4R)—N-(2-(((1R,4S)-4-(3-((3-((5-((S)-5-amino-5,7-dihydrospiro[cyclopenta[b]pyridine-6,4′-piperidin]-1′-yl)pyrazin-2-yl)thio)-2-chlorophenyl)amino)azetidine-1-carbonyl)cyclohexyl)oxy)-4-(4-methylthiazol-5-yl)benzyl)-1-((S)-2-(1-fluorocyclopropane-1-carboxamido)-3,3-dimethylbutanoyl)-4-hydroxypyrrolidine-2-carboxamide]
95.7%	97.1%	Cc1ncsc1-c1ccc(CNC(=O)[C@@H]2C[C@@H](O)CN2C(=O)[C@@H](NC(=O)C2(F)CC2)C(C)(C)C)c(O[C@H]2CC[C@H](C(=O)N3CC(Nc4nccc(Sc5cnc(N6CCC7(CC6)CO[C@@H](C)[C@H]7N)cn5)c4Cl)C3)CC2)c1 [Example 22, (2S,4R)—N-(2-(((1R,4S)-4-(3-((4-((5-((3S,4S)-4-amino-3-methyl-2-oxa-8-azaspiro[4.5]decan-8-yl)pyrazin-2-yl)thio)-3-chloropyridin-2-yl)amino)azetidine-1-carbonyl)cyclohexyl)oxy)-4-(4-methylthiazol-5-yl)benzyl)-1-((S)-2-(1-fluorocyclopropane-1-carboxamido)-3,3-dimethylbutanoyl)-4-hydroxypyrrolidine-2-carboxamide]
94.2%	97.0%	Cc1ncsc1-c1ccc(CNC(=O)[C@@H]2C[C@@H](O)CN2C(=O)[C@@H](NC(=O)C2(F)CC2)C(C)(C)C)c(O[C@H]2CC[C@H](C(=O)N3CCC(Nc4nccc(Sc5cnc(N6CCC7(CC6)CO[C@@H](C)[C@H]7N)cn5)c4Cl)CC3)CC2)c1 [Example 25, (2S,4R)—N-(2-(((1R,4S)-4-(4-((4-((5-((3S,4S)-4-amino-3-methyl-2-oxa-8-azaspiro[4.5]decan-8-yl)pyrazin-2-yl)thio)-3-chloropyridin-2-yl)amino)piperidine-1-carbonyl)cyclohexyl)oxy)-4-(4-methylthiazol-5-yl)benzyl)-1-((S)-2-(1-fluorocyclopropane-1-carboxamido)-3,3-dimethylbutanoyl)-4-hydroxypyrrolidine-2-carboxamide]
86.9%	98.5%	CC(=O)N[C@H](C(=O)N1C[C@H](O)C[C@H]1C(=O)NCc1ccc(-c2scnc2C)cc1O[C@H]1CC[C@H](C(=O)N2CC(Nc3cccc(Sc4cnc(N5CCC(C)(N)CC5)cn4)c3Cl)C2)CC1)C(C)(C)C [Example 28, (2S,4R)-1-((S)-2-acetamido-3,3-dimethylbutanoyl)-N-(2-(((1R,4S)-4-(3-((3-((5-(4-amino-4-methylpiperidin-1-yl)pyrazin-2-yl)thio)-2-chlorophenyl)amino)azetidine-1-carbonyl)cyclohexyl)oxy)-4-(4-methylthiazol-5-yl)benzyl)-4-hydroxypyrrolidine-2-carboxamide]
76.3%	99.4%	CC(=O)N[C@H](C(=O)N1C[C@H](O)C[C@H]1C(=O)NCc1ccc(-c2scnc2C)cc1O[C@H]1CC[C@H](C(=O)N2CC(Nc3cccc(Sc4cnc(N5CCC6(CC5)Cc5ncccc5[C@H]6N)cn4)c3Cl)C2)CC1)C(C)(C)C [Example 31, (2S,4R)-1-((S)-2-acetamido-3,3-dimethylbutanoyl)-N-(2-(((1R,4S)-4-(3-((3-((5-((S)-5-amino-5,7-dihydrospiro[cyclopenta[b]pyridine-6,4′-piperidin]-1′-yl)pyrazin-2-yl)thio)-2-chlorophenyl)amino)azetidine-1-carbonyl)cyclohexyl)oxy)-4-(4-methylthiazol-5-yl)benzyl)-4-hydroxypyrrolidine-2-carboxamide]
54.4%	98.5%	CC(=O)N[C@H](C(=O)N1C[C@H](O)C[C@H]1C(=O)NCc1ccc(-c2scnc2C)cc1O[C@H]1CC[C@H](C(=O)N2CC(N3CCc4c(Sc5cnc(N6CCC7(CC6)CO[C@@H](C)[C@H]7N)cn5)cccc43)C2)CC1)C(C)(C)C [Example 32, (2S,4R)-1-((S)-2-acetamido-3,3-dimethylbutanoyl)-N-(2-(((1R,4S)-4-(3-(4-((5-((3S,4S)-4-amino-3-methyl-2-oxa-8-azaspiro[4.5]decan-8-yl)pyrazin-2-yl)thio)indolin-1-yl)azetidine-1-carbonyl)cyclohexyl)oxy)-4-(4-methylthiazol-5-yl)benzyl)-4-hydroxypyrrolidine-2-carboxamide]
96.6%	99.1%	CC(=O)N[C@H](C(=O)N1C[C@H](O)C[C@H]1C(=O)NCc1ccc(-c2scnc2C)cc1O[C@H]1CC[C@H](C(=O)N2CCC(N3CCc4c(Sc5cnc(N6CCC7(CC6)CO[C@@H](C)[C@H]7N)cn5)cccc43)CC2)CC1)C(C)(C)C [Example 33, (2S,4R)-1-((S)-2-acetamido-3,3-dimethylbutanoyl)-N-(2-(((1R,4S)-4-(4-(4-((5-((3S,4S)-4-amino-3-methyl-2-oxa-8-azaspiro[4.5]decan-8-yl)pyrazin-2-yl)thio)indolin-1-yl)piperidine-1-carbonyl)cyclohexyl)oxy)-4-(4-methylthiazol-5-yl)benzyl)-4-hydroxypyrrolidine-2-carboxamide]

From patent US20260144788A1, “COMPOUND FOR SHP2 PROTEIN DEGRADATION AND MEDICAL USES THEREOF” (UBIX THERAPEUTICS, INC., priority 2022, published 2026)
